# Reference: PubChem BioAssay (NCI)
#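 Where inhibition never reached the appropriate level, the endpoint shown equals the highest concentration tested. Otherwise, values were interpolated linearly from a five-concentration, 48-hour dose response in 96-well plates. At the GI50, growth is halved. TGI: total growth inhibition.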
# Experiments:
# Assay in all cases: growth of human tumour cells (NCI), 48 h
# 786-0 renal = test system: 786-0 renal
# A498 renal = test system: A498 renal
# A549 NSCLC = test system: A549 NSCLC
# ACHN renal = test system: ACHN renal
# CAKI-1 renal = test system: CAKI-1 renal
# CCRF-CEM leukemia = test system: CCRF-CEM leukemia
# COLO 205 colon = test system: COLO 205 colon
# DU-145 prostate = test system: DU-145 prostate
# EKVX NSCLC = test system: EKVX NSCLC
# HCC-2998 colon = test system: HCC-2998 colon
# HCT-116 colon = test system: HCT-116 colon
# HCT-15 colon = test system: HCT-15 colon
# HL-60(TB) leukemia = test system: HL-60(TB) leukemia
# HOP-62 NSCLC = test system: HOP-62 NSCLC
# HOP-92 NSCLC = test system: HOP-92 NSCLC
# HS 578T breast = test system: HS 578T breast
# HT29 colon = test system: HT29 colon
# IGROV1 ovarian = test system: IGROV1 ovarian
# K-562 leukemia = test system: K-562 leukemia
# KM12 colon = test system: KM12 colon
# LOX IMVI melanoma = test system: LOX IMVI melanoma
# M14 melanoma = test system: M14 melanoma
# MALME-3M melanoma = test system: MALME-3M melanoma
# MCF7 breast = test system: MCF7 breast
# MDA-MB-231 breast = test system: MDA-MB-231 breast
# MDA-MB-435 = test system: MDA-MB-435
# MDA-MB-468 breast = test system: MDA-MB-468 breast
# MOLT-4 leukemia = test system: MOLT-4 leukemia
# NCI-H226 lung = test system: NCI-H226 lung
# NCI-H23 lung = test system: NCI-H23 lung
# NCI-H460 lung = test system: NCI-H460 lung
# NCI-H522 lung = test system: NCI-H522 lung
# OVCAR-3 ovarian = test system: OVCAR-3 ovarian
# OVCAR-4 ovarian = test system: OVCAR-4 ovarian
# OVCAR-5 ovarian = test system: OVCAR-5 ovarian
# OVCAR-8 ovarian = test system: OVCAR-8 ovarian
# PC-3 prostate = test system: PC-3 prostate
# RPMI-8226 leukemia = test system: RPMI-8226 leukemia
# RXF 393 renal = test system: RXF 393 renal
# SF-268 CNS = test system: SF-268 CNS
# SF-295 CNS = test system: SF-295 CNS
# SF-539 CNS = test system: SF-539 CNS
# SK-MEL-2 melanoma = test system: SK-MEL-2 melanoma
# SK-MEL-28 melanoma = test system: SK-MEL-28 melanoma
# SK-MEL-5 melanoma = test system: SK-MEL-5 melanoma
# SK-OV-3 ovarian = test system: SK-OV-3 ovarian
# SN12C renal = test system: SN12C renal
# SNB-19 CNS = test system: SNB-19 CNS
# SNB-75 CNS = test system: SNB-75 CNS
# SR leukemia = test system: SR leukemia
# SW-620 colon = test system: SW-620 colon
# T-47D breast = test system: T-47D breast
# TK-10 renal = test system: TK-10 renal
# U251 CNS = test system: U251 CNS
# UACC-257 melanoma = test system: UACC-257 melanoma
# UACC-62 melanoma = test system: UACC-62 melanoma
# UO-31 renal = test system: UO-31 renal
smiles,measurement,setting,value
CN1CCCN(Cc2ccc(C(=O)Nc3cccc(Nc4ccc5cc(O)ccc5n4)c3)cc2C(F)(F)F)CC1,GI50,786-0 renal,16 µM
same,TGI,786-0 renal,30.1 µM
same,GI50,A498 renal,17.6 µM
same,TGI,A498 renal,32 µM
same,GI50,A549 NSCLC,16.2 µM
same,TGI,A549 NSCLC,33.1 µM
same,GI50,ACHN renal,19.7 µM
same,TGI,ACHN renal,38.4 µM
same,GI50,CAKI-1 renal,14.1 µM
same,TGI,CAKI-1 renal,27.8 µM
same,GI50,CCRF-CEM leukemia,4.94 µM
same,TGI,CCRF-CEM leukemia,25.7 µM
same,GI50,COLO 205 colon,18.5 µM
same,TGI,COLO 205 colon,33.3 µM
same,GI50,DU-145 prostate,16.9 µM
same,TGI,DU-145 prostate,30.6 µM
same,GI50,EKVX NSCLC,16 µM
same,TGI,EKVX NSCLC,31.3 µM
same,GI50,HCC-2998 colon,16.5 µM
same,TGI,HCC-2998 colon,30.5 µM
same,GI50,HCT-116 colon,6.51 µM
same,TGI,HCT-116 colon,22.1 µM
same,GI50,HCT-15 colon,16.4 µM
same,TGI,HCT-15 colon,33.9 µM
same,GI50,HL-60(TB) leukemia,11.9 µM
same,TGI,HL-60(TB) leukemia,31.8 µM
same,GI50,HOP-62 NSCLC,17.8 µM
same,TGI,HOP-62 NSCLC,31.8 µM
same,GI50,HOP-92 NSCLC,10.4 µM
same,TGI,HOP-92 NSCLC,23.3 µM
same,GI50,HS 578T breast,14.8 µM
same,TGI,HS 578T breast,50.2 µM
same,GI50,HT29 colon,13.3 µM
same,TGI,HT29 colon,28.8 µM
same,GI50,IGROV1 ovarian,17.2 µM
same,TGI,IGROV1 ovarian,32 µM
same,GI50,K-562 leukemia,1.18 µM
same,TGI,K-562 leukemia,4.54 µM
same,GI50,KM12 colon,14.1 µM
same,TGI,KM12 colon,28.1 µM
same,GI50,LOX IMVI melanoma,12.1 µM
same,TGI,LOX IMVI melanoma,25 µM
same,GI50,M14 melanoma,12.7 µM
same,TGI,M14 melanoma,27.8 µM
same,GI50,MALME-3M melanoma,12.6 µM
same,TGI,MALME-3M melanoma,25.6 µM
same,GI50,MCF7 breast,9.83 µM
same,TGI,MCF7 breast,24.7 µM
same,GI50,MDA-MB-231 breast,13.9 µM
same,TGI,MDA-MB-231 breast,27.5 µM
same,GI50,MDA-MB-435,10.4 µM
same,TGI,MDA-MB-435,22.1 µM
same,GI50,MDA-MB-468 breast,8.88 µM
same,TGI,MDA-MB-468 breast,21.6 µM
same,GI50,MOLT-4 leukemia,2.05 µM
same,TGI,MOLT-4 leukemia,14.5 µM
same,GI50,NCI-H226 lung,13.8 µM
same,TGI,NCI-H226 lung,28.9 µM
same,GI50,NCI-H23 lung,16.8 µM
same,TGI,NCI-H23 lung,32.1 µM
same,GI50,NCI-H460 lung,18 µM
same,TGI,NCI-H460 lung,36.7 µM
same,GI50,NCI-H522 lung,17 µM
same,TGI,NCI-H522 lung,32 µM
same,GI50,OVCAR-3 ovarian,16.3 µM
same,TGI,OVCAR-3 ovarian,29.9 µM
same,GI50,OVCAR-4 ovarian,15 µM
same,TGI,OVCAR-4 ovarian,30 µM
same,GI50,OVCAR-5 ovarian,15.3 µM
same,TGI,OVCAR-5 ovarian,31 µM
same,GI50,OVCAR-8 ovarian,18.9 µM
same,TGI,OVCAR-8 ovarian,37.2 µM
same,GI50,PC-3 prostate,13.1 µM
same,TGI,PC-3 prostate,28.5 µM
same,GI50,RPMI-8226 leukemia,11.4 µM
same,TGI,RPMI-8226 leukemia,35.9 µM
same,GI50,RXF 393 renal,12.5 µM
same,TGI,RXF 393 renal,26.1 µM
same,GI50,SF-268 CNS,17.3 µM
same,TGI,SF-268 CNS,36.1 µM
same,GI50,SF-295 CNS,17.3 µM
same,TGI,SF-295 CNS,33.4 µM
same,GI50,SF-539 CNS,11.3 µM
same,TGI,SF-539 CNS,24 µM
same,GI50,SK-MEL-2 melanoma,17.2 µM
same,TGI,SK-MEL-2 melanoma,31.8 µM
same,GI50,SK-MEL-28 melanoma,13.9 µM
same,TGI,SK-MEL-28 melanoma,29 µM
same,GI50,SK-MEL-5 melanoma,16.1 µM
same,TGI,SK-MEL-5 melanoma,29.6 µM
same,GI50,SK-OV-3 ovarian,17.6 µM
same,TGI,SK-OV-3 ovarian,32 µM
same,GI50,SN12C renal,17.3 µM
same,TGI,SN12C renal,31.7 µM
same,GI50,SNB-19 CNS,17 µM
same,TGI,SNB-19 CNS,31.7 µM
same,GI50,SNB-75 CNS,1.17 µM
same,TGI,SNB-75 CNS,16.7 µM
same,GI50,SR leukemia,1.89 µM
same,TGI,SR leukemia,5.3 µM
same,GI50,SW-620 colon,14.5 µM
same,TGI,SW-620 colon,28.9 µM
same,GI50,T-47D breast,15.8 µM
same,TGI,T-47D breast,33.3 µM
same,GI50,TK-10 renal,18.5 µM
same,TGI,TK-10 renal,32.8 µM
same,GI50,U251 CNS,14.8 µM
same,TGI,U251 CNS,30.6 µM
same,GI50,UACC-257 melanoma,14.7 µM
same,TGI,UACC-257 melanoma,29.1 µM
same,GI50,UACC-62 melanoma,15.9 µM
same,TGI,UACC-62 melanoma,30 µM
same,GI50,UO-31 renal,15.2 µM
same,TGI,UO-31 renal,29.7 µM
